Assay results: publication PMC9743095 (Journal of Medicinal Chemistry, 2022)
Like-named read-outs stand apart in the source and are kept apart here.

Tests used:
Type in all cases: cell-based
NCI-H929 = assay: cells; details: for CC50: Homo sapiens, NCI-H929, 72 h, read-out: LC50; for MI%: NCI-H929, maximum inhibitory effect over concentration range
Experimental: (§1) The assay was contracted and carried out by WuXi AppTec (Shanghai) Co., Ltd. The tumor cell lines CCRF-CEM, HL-60, KG-1, MOLT-4, K562, MV4-11, THP-1, HEL92.1.7, NCI-H929, RPMI-8226, Jurkat, Z138, RL, HS445, HepG2, MCF-7, Bx-PC-3, HT29, MIA PaCa-2, and SW620 were seeded at cell densities of […] 10^3 cells/well in a 96-well plate the day before drug incubation. Then, the plates were incubated for 72 h with the different concentrations of compound to be tested. After the incubation period, 50 μL of MTS was added and the tumor cells were incubated for 4 h at 37 °C. The data were read and collected by a Spectra Max 340 absorbance microplate reader. The compounds were tested in duplicate with nine serial concentrations (3.16-fold titrations with 198 μM as the highest concentration), and the data were analyzed by XLfit software.

HL-60 = assay: cells; details: Homo sapiens; for Emax: read-out: MI%; for CC50: read-out: LC50
Experimental: as §1

Jurkat = assay: cells; details: for CC50: Homo sapiens, 72 h, read-out: LC50; for CC50 / MI%: Jurkat; for MI%: maximum inhibitory effect over concentration range
Experimental: as §1

MV4-11 = assay: cells; details: for CC50: Homo sapiens, MV4-11, 72 h, read-out: LC50; for MI%: MV4-11, maximum inhibitory effect over concentration range
Experimental: as §1

RPMI-8226 = assay: cells; details: for CC50: Homo sapiens, RPMI-8226, 72 h, read-out: LC50; for MI%: RPMI-8226, maximum inhibitory effect over concentration range
Experimental: as §1

MCF-7 = assay: cells; details: Homo sapiens, MCF7, 72 h; for CC50: read-out: LC50; for Emax: read-out: MI%
Experimental: as §1

CCRF-CEM = assay: cells; details: Homo sapiens, 72 h; for Emax: read-out: MI%; for CC50: read-out: LC50
Experimental: as §1

HT29 = assay: cells; details: for MI%: HT29, maximum inhibitory effect over concentration range; for CC50: Homo sapiens, HT-29, 72 h, read-out: lC50
Experimental: as §1

THP-1 = assay: cells; details: for CC50: Homo sapiens, THP-1, 72 h, read-out: LC50; for MI%: THP-1, maximum inhibitory effect over concentration range
Experimental: as §1

KG-1 = assay: cells; details: Homo sapiens, KG-1, 72 h, read-out: LC50
Experimental: as §1

HepG2 = assay: cells; details: Homo sapiens; for Emax: read-out: MI%; for CC50: read-out: LC50
Experimental: as §1

BxPC-3 = assay: cells; details: for MI%: BxPC-3, maximum inhibitory effect over concentration range; for CC50: Homo sapiens, BXPC-3, 72 h, read-out: LC50
Experimental: as §1

RL = assay: cells; details: for CC50: Homo sapiens, 72 h, read-out: LC50; for MI%: maximum inhibitory effect over concentration range
Experimental: as §1

HEL92.1.7 = assay: cells; details: for MI%: HEL92.1.7, maximum inhibitory effect over concentration range; for CC50: Homo sapiens, HEL 92.1.7, 72 h, read-out: LC50
Experimental: as §1

Z138 = assay: cells; details: for CC50: Homo sapiens, Z-138, 72 h, read-out: LC50; for MI%: Z138, maximum inhibitory effect over concentration range
Experimental: as §1

MIA PaCa-2 = assay: cells; details: for CC50: Homo sapiens, MIA PaCa-2, 72 h, read-out: LC50; for MI%: MIA PaCa-2, maximum inhibitory effect over concentration range
Experimental: as §1

K562 cell line = assay: ATP viability assay; details: Homo sapiens
Experimental: (§2) HL-60 (ATCC CCL-240), K562 (ATCC CCL-243), CCRF-CEM (ATCC CRM-CCL-119), and RL (ATCC CRL-2261) leukemia cell lines were obtained from the American Type Culture Collection (ATCC), Middlesex. HL-60 and K562 cell lines are deoxynucleotidyl transferase-negative (TdT^–ve), whereas CCRF-CEM cell line is TdT^+ve. They were cultured in RPMI-1640 medium (Sigma-Aldrich, U.K.), which were supplemented with 10% fetal bovine serum (FBS) (PAA Laboratories), 1% amphotericin B (5.5 mL), and 1% penicillin/streptomycin (5.5 mL) (PAA Laboratories) and grown in flasks at 37 °C in an incubator with 5% CO2. For the studies with inhibitors, the cells were treated with 10 μM nitrobenzylthioinosine (NBTI, hENT inhibitor) or 1 μM EHNA (EHNA hydrochloride) or A-134974 (A-134974 dihydrochloride hydrate) and left for 5 min before adding the drug. The cells were then incubated for 2 h at 37 °C with 5% CO2.
(§3) The amount of ATP was used as a measurement of cell number and cell viability. ATP ViaLightTM plus assay kit (Lonza: Product No. LT07-121) to detect ATP in cells treated in luminescence compatible 96-well plates (initial concentration of cells was 1 × 10^4 cells/well) with Cordycepin and ProTides at concentrations of 0, 0.1, 0.5, 1, 5, and 10 μM, followed by incubation for 72 h at 37 °C in an incubator with 5% CO2. For inhibitor studies, 10 μM NBTI or 1 μM EHNA or A-134974 was added and left for 5 min before adding the drugs. After incubation, 50 μL of cell lysis reagent was added to the 96-well plates to release the intracellular ATP, followed by 100 μL of ATP monitoring reagent (AMR). The luminescent values of each well were determined using FLUOstar OPTIMA microplate reader (BMG Labtech), which converted ATP into light using luciferase enzyme. Therefore, the amount of luminescence produced was directly proportional to the amount of ATP.

CRL cell line = assay: ATP viability assay; details: for CC50: Homo sapiens, read-out: LC50
Experimental: as §2, §3

CEM cell line = assay: ATP viability assay; details: for CC50: Homo sapiens, CCRF-CEM, read-out: LC50
Experimental: as §2, §3

HL-60 cell line = assay: ATP viability assay; details: Homo sapiens
Experimental: as §2, §3

## Nc1ncnc2c1ncn2[C@@H]1O[C@H](CO)C[C@H]1O [3′-dA, 3′-Deoxyadenosine, reference compound]
NCI-H929
  CC50: > 198 µM
  MI%: 24%
HL-60; 72 h, HL-60, maximum inhibitory effect over concentration range
  Emax: 88%
HL-60; HL-60, 72 h
  CC50: 76.8 µM
Jurkat
  CC50: > 198 µM
  MI%: 20%
MV4-11
  CC50: > 198 µM
  MI%: 1%
RPMI-8226
  CC50: > 198 µM
  MI%: 1%
MCF-7
  CC50: 34.2 µM
MCF-7; MCF-7, maximum inhibitory effect over concentration range
  Emax: 78%
CCRF-CEM; maximum inhibitory effect over concentration range
  Emax: 12%
CCRF-CEM
  CC50: > 198 µM
HT29
  MI%: 44%
  CC50: > 198 µM
THP-1
  CC50: > 198 µM
  MI%: –3%
KG-1
  CC50: 70.8 µM
HepG2; 72 h, HepG2, maximum inhibitory effect over concentration range
  Emax: 66%
HepG2; HepG2, 72 h
  CC50: 142 µM
BxPC-3
  MI%: 22%
  CC50: > 198 µM
RL
  CC50: > 198 µM
  MI%: 17%
HEL92.1.7
  MI%: 88%
  CC50: 68.9 µM
Z138
  CC50: 12.2 µM
  MI%: 95%
MIA PaCa-2
  CC50: > 198 µM
  MI%: 35%
K562 cell line; K562, 72 h, read-out: LC50
  CC50: 10.9 µM
CRL cell line; CRL
  improvement of LC50 on inhibition of ADA with EHNA: 2 fold
CRL cell line; 72 h
  CC50: 24.5 µM
CRL cell line
  CC50: 7.3 µM
CEM cell line; CEM
  improvement of LC50 on inhibition of ADA with EHNA: 16 fold
CEM cell line; 72 h
  CC50: 19.5 µM
CEM cell line
  CC50: 11.5 µM
HL-60 cell line; HL-60, 72 h, read-out: LC50
  CC50: 11.4 µM

## CCOC(=O)CCc1ccccc1OP(=O)(N[C@@H](C)C(=O)OCc1ccccc1)OC[C@@H]1C[C@@H](O)[C@H](n2cnc3c(N)ncnc32)O1 (some centres unmarked) [Compound 7e]
NCI-H929
  CC50: 7.57 µM
  MI%: 100%
HL-60; HL-60, 72 h
  CC50: 78.5 µM
  Emax: 74%
Jurkat
  CC50: 4.75 µM
  MI%: 100%
MV4-11
  CC50: 3.27 µM
  MI%: 100%
RPMI-8226
  CC50: 31.1 µM
  MI%: 106%
MCF-7
  CC50: 15.8 µM
  Emax: 78%
CCRF-CEM
  CC50: 40.1 µM
  Emax: 90%
HT29
  MI%: 89%
  CC50: 25.2 µM
THP-1
  CC50: 36.7 µM
  MI%: 100%
KG-1
  CC50: 102 µM
HepG2; HepG2, 72 h
  CC50: 96.1 µM
  Emax: 59%
BxPC-3
  MI%: 78%
  CC50: 60.9 µM
RL
  CC50: 7.26 µM
  MI%: 90%
HEL92.1.7
  MI%: 99%
  CC50: 14.5 µM
Z138
  CC50: 68.2 µM
  MI%: 76%
MIA PaCa-2
  CC50: 12.1 µM
  MI%: 101%
K562 cell line; K562, Table S2, no inhibitors, 72 h, read-out: LC50 (the source's name)
  CC50: 6.3 µM
CRL cell line; 72 h
  CC50: 3.4 µM
CEM cell line; 72 h
  CC50: 4.3 µM
HL-60 cell line; HL-60, Table S2, no inhibitors, 72 h, read-out: LC50 (the source's name)
  CC50: 8.3 µM

## C[C@H](NP(=O)(OC[C@@H]1C[C@@H](O)[C@H](n2cnc3c(N)ncnc32)O1)Oc1ccccc1)C(=O)OCc1ccccc1 (stereo partly drawn) [Compound 7a, (Rp)- and (Sp)-3′-Deoxyadenosine 5′-O-phenyl-(benzoxy-L-alaninyl)-phosphate]
NCI-H929
  CC50: 6.07 µM
  MI%: 100%
HL-60; HL-60, 72 h
  CC50: 17.8 µM
  Emax: 97%
Jurkat
  CC50: 1.44 µM
  MI%: 100%
Jurkat; Jurkat cell line, from LC50
  fold more active than 3′-dA: approximately 200 fold
MV4-11
  CC50: 2.1 µM
  MI%: 99%
RPMI-8226
  CC50: 14.7 µM
  MI%: 96%
MCF-7
  CC50: 3.07 µM
  Emax: 94%
CCRF-CEM
  CC50: 2.36 µM
  Emax: 100%
HT29
  MI%: 93%
  CC50: 13.4 µM
THP-1
  CC50: 65.5 µM
  MI%: 74%
KG-1
  CC50: 17.4 µM
HepG2; HepG2, 72 h
  CC50: 18.7 µM
  Emax: 76%
BxPC-3
  MI%: 81%
  CC50: 23.6 µM
RL
  CC50: 3 µM
  MI%: 93%
HEL92.1.7
  MI%: 100%
  CC50: 8.07 µM
Z138
  CC50: 27 µM
  MI%: 95%
MIA PaCa-2
  CC50: 6.85 µM
  MI%: 96%
K562 cell line; K562, 72 h, read-out: LC50
  CC50: 2.4 µM
CRL cell line; 72 h
  CC50: 2.1 µM
CRL cell line
  CC50: 3.6 µM
CEM cell line; CEM
  LC50 change on ADA inhibition by EHNA: did not lead to any LC50 changes
CEM cell line; 72 h
  CC50: 0.87 µM
CEM cell line
  CC50: 1.4 µM
HL-60 cell line; HL-60, 72 h, read-out: LC50
  CC50: 4.6 µM
